# Literature values, collected in patent US20220008485A1, “Wound Honey” (priority 2020, published 2022).
# Like-named read-outs stand apart in the source and are kept apart here.
# Key:
# [1] = test system: Pseudomonas aeruginosa; conditions: for MBC acid: acid alone; for MBC combination Acid/H2O2: acid part: acid combined with H2O2, in Bovine albumin + yeast extract 1%; for MBC combination Acid/H2O2: H2O2 part: in Bovine albumin + yeast extract 1%
# [2] = test system: Clostridium perfringens
# [3] = test system: Bacillus cereus
# [4] = test system: Enterococcus hirae
# [5] = test system: Staphylococcus aureus
# [6] = test system: Listeria monocytogenes
# [7] = test system: spores of B. cereus; conditions: 0.1% TC, HP at 600 MPA, 7° Celsius, infant formula
# [8] = in combination with silver nanoparticles
# [9] = acid combined with H2O2, in Bovine albumin + yeast extract 1%
# [10] = H2O2 combined with Formic acid, in Bovine albumin + yeast extract 1%
smiles,measurement,setting,value
"CC(=O)O [Acetic, acetic acid]",MBC acid,[1],0.625%
same,MBC combination Acid/H2O2: acid part,[1],0.625%
"O=CC=Cc1ccccc1 [Cinnamaldehyde, cinnamaldehyde]","Minimal Inhibitory Concentration, Cinnamaldehyde",[2]; alone,0.065 mg/mL
same,"Minimal Inhibitory Concentration, Synergy Cinnamaldehyde",[2]; [8],0.016 mg/mL
same,"Minimal Inhibitory Concentration, Cinnamaldehyde",[3]; alone,0.328 mg/mL
same,"Minimal Inhibitory Concentration, Synergy Cinnamaldehyde",[3]; [8],0.082 mg/mL
"O=CO [Formic, formic acid]",MBC acid,[1],0.025%
same,MBC combination Acid/H2O2: acid part,[1],0.025%
same,MBC acid,[4]; acid alone,5%
same,MBC combination Acid/H2O2: acid part,[4]; [9],0.625%
same,MBC acid,[5]; acid alone,1.25%
same,MBC combination Acid/H2O2: acid part,[5]; [9],0.312%
same,MBC acid,[6]; acid alone,1.56%
same,MBC combination Acid/H2O2: acid part,[6]; [9],0.625%
"CCC(=O)O [Propionic, propionic acid]",MBC acid,[1],0.5%
same,MBC combination Acid/H2O2: acid part,[1],0.50%
"O=C(O)CCC(=O)O [Succinic, succinic acid]",MBC acid,[1],0.078%
same,MBC combination Acid/H2O2: acid part,[1],0.078%
"O=C/C=C/c1ccccc1 [TC, trans-cinnamaldehyde]",Mean logarithmic decrease in spores of B. cereus,[7]; Week 1,1.5
same,Mean logarithmic decrease in spores of B. cereus,[7]; Week 2,2
same,Mean logarithmic decrease in spores of B. cereus,[7]; Week 3,3
same,Mean logarithmic decrease in spores of B. cereus,[7]; Week 4,2.25
same,Mean logarithmic decrease in spores of B. cereus,[7]; Week 5,3
same,Mean logarithmic decrease in spores of B. cereus,[7]; Week 6,1.5
OO [hydrogen peroxide],MBC combination Acid/H2O2: H2O2 part,[1]; H2O2 combined with Acetic acid,0.39%
same,MBC combination Acid/H2O2: H2O2 part,[1]; H2O2 combined with Formic acid,0.39%
same,MBC combination Acid/H2O2: H2O2 part,[1]; H2O2 combined with Propionic acid,0.19%
same,MBC combination Acid/H2O2: H2O2 part,[1]; H2O2 combined with Succinic acid,0.78%
same,MBC hydrogen peroxide,[1]; hydrogen peroxide alone,1.56%
same,MBC combination Acid/H2O2: H2O2 part,[4]; [10],3.12%
same,MBC hydrogen peroxide,[4]; hydrogen peroxide alone,12.5%
same,MBC combination Acid/H2O2: H2O2 part,[5]; [10],1.56%
same,MBC hydrogen peroxide,[5]; hydrogen peroxide alone,3.12%
same,MBC combination Acid/H2O2: H2O2 part,"[6]; H2O2 combined with Formic (printed Fonnic) acid, in Bovine albumin + yeast extract 1%",0.78%
same,MBC hydrogen peroxide,[6]; hydrogen peroxide alone,6.25%
